PubChem BioAssay (NCI)
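Results reflect a 48-hour exposure of cells in 96-well plates to compound at five concentrations. GI50 is the concentration that inhibits growth by half. TGI: total growth inhibition.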

Tests used:
Assay in all cases: NCI tumour cell line growth inhibition, 48 h
786-0 renal = system: 786-0 renal
A498 renal = system: A498 renal
A549 NSCLC = system: A549 NSCLC
ACHN renal = system: ACHN renal
BT-549 breast = system: BT-549 breast
CAKI-1 renal = system: CAKI-1 renal
CCRF-CEM leukemia = system: CCRF-CEM leukemia
COLO 205 colon = system: COLO 205 colon
DU-145 prostate = system: DU-145 prostate
EKVX NSCLC = system: EKVX NSCLC
HCC-2998 colon = system: HCC-2998 colon
HCT-116 colon = system: HCT-116 colon
HCT-15 colon = system: HCT-15 colon
HL-60(TB) leukemia = system: HL-60(TB) leukemia
HOP-62 NSCLC = system: HOP-62 NSCLC
HOP-92 NSCLC = system: HOP-92 NSCLC
HS 578T breast = system: HS 578T breast
HT29 colon = system: HT29 colon
IGROV1 ovarian = system: IGROV1 ovarian
K-562 leukemia = system: K-562 leukemia
KM12 colon = system: KM12 colon
LOX IMVI melanoma = system: LOX IMVI melanoma
M14 melanoma = system: M14 melanoma
MALME-3M melanoma = system: MALME-3M melanoma
MCF7 breast = system: MCF7 breast
MDA-MB-231 breast = system: MDA-MB-231 breast
MDA-MB-435 = system: MDA-MB-435
MDA-MB-468 breast = system: MDA-MB-468 breast
MOLT-4 leukemia = system: MOLT-4 leukemia
NCI-H226 lung = system: NCI-H226 lung
NCI-H23 lung = system: NCI-H23 lung
NCI-H460 lung = system: NCI-H460 lung
NCI-H522 lung = system: NCI-H522 lung
NCI/ADR-RES ovarian = system: NCI/ADR-RES ovarian
OVCAR-3 ovarian = system: OVCAR-3 ovarian
OVCAR-4 ovarian = system: OVCAR-4 ovarian
OVCAR-5 ovarian = system: OVCAR-5 ovarian
OVCAR-8 ovarian = system: OVCAR-8 ovarian
PC-3 prostate = system: PC-3 prostate
RPMI-8226 leukemia = system: RPMI-8226 leukemia
SF-268 CNS = system: SF-268 CNS
SF-295 CNS = system: SF-295 CNS
SF-539 CNS = system: SF-539 CNS
SK-MEL-2 melanoma = system: SK-MEL-2 melanoma
SK-MEL-28 melanoma = system: SK-MEL-28 melanoma
SK-MEL-5 melanoma = system: SK-MEL-5 melanoma
SK-OV-3 ovarian = system: SK-OV-3 ovarian
SN12C renal = system: SN12C renal
SNB-19 CNS = system: SNB-19 CNS
SNB-75 CNS = system: SNB-75 CNS
SR leukemia = system: SR leukemia
SW-620 colon = system: SW-620 colon
T-47D breast = system: T-47D breast
TK-10 renal = system: TK-10 renal
U251 CNS = system: U251 CNS
UACC-257 melanoma = system: UACC-257 melanoma
UACC-62 melanoma = system: UACC-62 melanoma
UO-31 renal = system: UO-31 renal

C#CCCCN(CCNc1ccnc2cc(Cl)ccc12)C(=O)CCC(=O)O[C@@H]1O[C@@H]2OC3(C)CC[C@H]4[C@H](C)CC[C@@H]([C@H]1C)[C@@]24OO3
GI50 (786-0 renal): 5.67 µM
TGI (786-0 renal): > 11.5 µM
GI50 (A498 renal): > 11.5 µM
TGI (A498 renal): > 11.5 µM
GI50 (A549 NSCLC): 7.37 µM
TGI (A549 NSCLC): > 11.5 µM
GI50 (ACHN renal): 2.18 µM
TGI (ACHN renal): > 11.5 µM
GI50 (BT-549 breast): 1.27 µM
TGI (BT-549 breast): > 11.5 µM
GI50 (CAKI-1 renal): 8.21 µM
TGI (CAKI-1 renal): > 11.5 µM
GI50 (CCRF-CEM leukemia): 0.697 µM
TGI (CCRF-CEM leukemia): > 11.5 µM
GI50 (COLO 205 colon): 1.39 µM
TGI (COLO 205 colon): > 11.5 µM
GI50 (DU-145 prostate): 8.95 µM
TGI (DU-145 prostate): > 11.5 µM
GI50 (EKVX NSCLC): 1.03 µM
TGI (EKVX NSCLC): > 11.5 µM
GI50 (HCC-2998 colon): 2.72 µM
TGI (HCC-2998 colon): > 11.5 µM
GI50 (HCT-116 colon): 0.554 µM
TGI (HCT-116 colon): > 11.5 µM
GI50 (HCT-15 colon): 0.337 µM
TGI (HCT-15 colon): > 11.5 µM
GI50 (HL-60(TB) leukemia): 0.364 µM
TGI (HL-60(TB) leukemia): 1.82 µM
GI50 (HOP-62 NSCLC): > 11.5 µM
TGI (HOP-62 NSCLC): > 11.5 µM
GI50 (HOP-92 NSCLC): 0.581 µM
TGI (HOP-92 NSCLC): 6.74 µM
GI50 (HS 578T breast): 1.83 µM
TGI (HS 578T breast): > 11.5 µM
GI50 (HT29 colon): 0.701 µM
TGI (HT29 colon): > 11.5 µM
GI50 (IGROV1 ovarian): 3.01 µM
TGI (IGROV1 ovarian): > 11.5 µM
GI50 (K-562 leukemia): 0.448 µM
TGI (K-562 leukemia): > 11.5 µM
GI50 (KM12 colon): 0.572 µM
TGI (KM12 colon): > 11.5 µM
GI50 (LOX IMVI melanoma): 0.676 µM
TGI (LOX IMVI melanoma): 2.82 µM
GI50 (M14 melanoma): 4.86 µM
TGI (M14 melanoma): > 11.5 µM
GI50 (MALME-3M melanoma): 2.56 µM
TGI (MALME-3M melanoma): > 11.5 µM
GI50 (MCF7 breast): 0.805 µM
TGI (MCF7 breast): > 11.5 µM
GI50 (MDA-MB-231 breast): 9.5 µM
TGI (MDA-MB-231 breast): > 11.5 µM
GI50 (MDA-MB-435): 0.772 µM
TGI (MDA-MB-435): > 11.5 µM
GI50 (MDA-MB-468 breast): 1.74 µM
TGI (MDA-MB-468 breast): 5.49 µM
GI50 (MOLT-4 leukemia): 0.527 µM
TGI (MOLT-4 leukemia): 5.82 µM
GI50 (NCI-H226 lung): 3.76 µM
TGI (NCI-H226 lung): > 11.5 µM
GI50 (NCI-H23 lung): 1.08 µM
TGI (NCI-H23 lung): > 11.5 µM
GI50 (NCI-H460 lung): 5.09 µM
TGI (NCI-H460 lung): > 11.5 µM
GI50 (NCI-H522 lung): 0.788 µM
TGI (NCI-H522 lung): > 11.5 µM
GI50 (NCI/ADR-RES ovarian): 1.83 µM
TGI (NCI/ADR-RES ovarian): > 11.5 µM
GI50 (OVCAR-3 ovarian): 0.876 µM
TGI (OVCAR-3 ovarian): > 11.5 µM
GI50 (OVCAR-4 ovarian): 1.39 µM
TGI (OVCAR-4 ovarian): > 11.5 µM
GI50 (OVCAR-5 ovarian): 0.974 µM
TGI (OVCAR-5 ovarian): > 11.5 µM
GI50 (OVCAR-8 ovarian): 1.04 µM
TGI (OVCAR-8 ovarian): > 11.5 µM
GI50 (PC-3 prostate): 0.194 µM
TGI (PC-3 prostate): > 11.5 µM
GI50 (RPMI-8226 leukemia): 0.399 µM
TGI (RPMI-8226 leukemia): > 11.5 µM
GI50 (SF-268 CNS): 7.45 µM
TGI (SF-268 CNS): > 11.5 µM
GI50 (SF-295 CNS): 1.87 µM
TGI (SF-295 CNS): > 11.5 µM
GI50 (SF-539 CNS): 3.99 µM
TGI (SF-539 CNS): > 11.5 µM
GI50 (SK-MEL-2 melanoma): 4.93 µM
TGI (SK-MEL-2 melanoma): > 11.5 µM
GI50 (SK-MEL-28 melanoma): 2.64 µM
TGI (SK-MEL-28 melanoma): > 11.5 µM
GI50 (SK-MEL-5 melanoma): 1.18 µM
TGI (SK-MEL-5 melanoma): 8.98 µM
GI50 (SK-OV-3 ovarian): > 11.5 µM
TGI (SK-OV-3 ovarian): > 11.5 µM
GI50 (SN12C renal): 3.06 µM
TGI (SN12C renal): > 11.5 µM
GI50 (SNB-19 CNS): 7.16 µM
TGI (SNB-19 CNS): > 11.5 µM
GI50 (SNB-75 CNS): > 11.5 µM
TGI (SNB-75 CNS): > 11.5 µM
GI50 (SR leukemia): 0.475 µM
TGI (SR leukemia): 9.37 µM
GI50 (SW-620 colon): 0.643 µM
TGI (SW-620 colon): > 11.5 µM
GI50 (T-47D breast): 0.402 µM
TGI (T-47D breast): > 11.5 µM
GI50 (TK-10 renal): 8.12 µM
TGI (TK-10 renal): > 11.5 µM
GI50 (U251 CNS): 2.73 µM
TGI (U251 CNS): > 11.5 µM
GI50 (UACC-257 melanoma): 2.3 µM
TGI (UACC-257 melanoma): > 11.5 µM
GI50 (UACC-62 melanoma): 0.878 µM
TGI (UACC-62 melanoma): > 11.5 µM
GI50 (UO-31 renal): 1.19 µM
TGI (UO-31 renal): > 11.5 µM
